{"source": "patent US8198217B2", "about": "“Composition for weeding” (Kumiai Chemical Industry Co., Ltd., priority 2007, dated 2012)", "key": {"[1]": {"tested_on": "corn (ZEAMX)", "assay": "Weed control effect test by stems-and-leaves treatment: phytotoxicity to corn", "assay_type": "in vivo", "settings": "30th day from treatment", "procedure": "A plastic pot of 1/2000 are area was each filled with a dry-field soil where the respective seeds of corn (ZEAMX), pitted morningglory (IPOLA), velvet leaf (ABUTH) and lamb's-quarters (CHEAL) were sowed and tuberous roots of yellow nutsedge (CYPES) were buried followed by pooling of water from the bottom part of the pot. These seeds and tuberous roots were grown in a greenhouse. […] Thereafter, growing was continued in the glasshouse to record the weed control effect and the extent of phytotoxicity on the 30th day from the treatment as indexes according to the criteria given in Table 1. The dosages are given in terms of the amount of the active ingredients per hectare (ha)."}, "[2]": {"tested_on": "lamb's-quarters (CHEAL)", "assay": "Weed control effect test by stems-and-leaves treatment", "assay_type": "in vivo", "settings": "30th day from treatment", "procedure": "(§1) A plastic pot of 1/2000 are area was each filled with a dry-field soil where the respective seeds of corn (ZEAMX), pitted morningglory (IPOLA), velvet leaf (ABUTH) and lamb's-quarters (CHEAL) were sowed and tuberous roots of yellow nutsedge (CYPES) were buried followed by pooling of water from the bottom part of the pot. These seeds and tuberous roots were grown in a greenhouse. On the day when the pitted morningglory had reached its 4 leaves stage, a stems-and-leaves treatment was undertaken on the whole plant bodies with agents each prepared by dilution of a specified amount of the water-dispersible granules prepared in the same manner as in Example 3, 4 and 5 with water, respectively. Thereafter, growing was continued in the glasshouse to record the weed control effect and the extent of phytotoxicity on the 30th day from the treatment as indexes according to the criteria given in Table 1. The dosages are given in terms of the amount of the active ingredients per hectare (ha)."}, "[3]": {"tested_on": "pitted morningglory (IPOLA)", "assay": "Weed control effect test by stems-and-leaves treatment", "assay_type": "in vivo", "settings": "30th day from treatment", "procedure": "as §1"}, "[4]": {"tested_on": "velvet leaf (ABUTH)", "assay": "Weed control effect test by stems-and-leaves treatment", "assay_type": "in vivo", "settings": "30th day from treatment", "procedure": "as §1"}, "[5]": {"tested_on": "yellow nutsedge (CYPES)", "assay": "Weed control effect test by stems-and-leaves treatment", "assay_type": "in vivo", "settings": "30th day from treatment", "procedure": "as §1"}, "[6]": {"tested_on": "paddy rice plants (Or)", "assay": "Weed control effect test on paddy fields: phytotoxicity to paddy rice", "assay_type": "in vivo", "settings": "applied onto water surface, 25th day from treatment", "excerpt": "(§2) A plastic pot of 1/20000 are area was each filled with a paddy field soil which was manured and shuffled followed by sowing of the respective seeds of early watergrass (ECHOR), heartshape false pickerelweed (MOOVA), rock's bulrush (SCIJO) and marsh dayflower (ANEKE) and burying of tuberous roots of tidalmarsh flatsedge (CYPSE) followed by pooling of water in a water depth of 1 cm. And, paddy rice plants (Or) at the two-leaves stage were transplanted to the same pot and grown in a greenhouse. Thereafter, on the day when the early watergrass had reached its 2.5 leaves stage, pooling of water was undertaken in order to make the water depth to 3 cm and agents each prepared by dilution of a specified amount of the wettable powder prepared in the same manner as in Example 1 and 2 with water was applied onto the water surface, respectively. Then, growing was continued keeping the pooling water depth of 3 cm to record the weed control effect and the extent of phytotoxicity on the 25th day from the treatment as indexes according to the criteria given in Table 1. The dosages are given in terms of the amount of the active ingredients per 10 ares area."}, "[7]": {"tested_on": "early watergrass (ECHOR)", "assay": "Weed control effect test on paddy fields", "assay_type": "in vivo, Echinochloa oryzicola", "settings": "applied onto water surface, 25th day from treatment", "excerpt": "as §2"}, "[8]": {"tested_on": "heartshape false pickerelweed (MOOVA)", "assay": "Weed control effect test on paddy fields", "assay_type": "in vivo, Monochoria vaginalis", "settings": "applied onto water surface, 25th day from treatment", "excerpt": "as §2"}, "[9]": {"tested_on": "rock's bulrush (SCIJO)", "assay": "Weed control effect test on paddy fields", "assay_type": "in vivo, Scirpus juncoides", "settings": "applied onto water surface, 25th day from treatment", "excerpt": "as §2"}, "[10]": {"tested_on": "tidalmarsh flatsedge (CYPSE)", "assay": "Weed control effect test on paddy fields", "assay_type": "in vivo, Cyperus serotinus", "settings": "applied onto water surface, 25th day from treatment", "excerpt": "as §2"}, "[11]": {"tested_on": "marsh dayflower (ANEKE)", "assay": "Weed control effect test on paddy fields", "assay_type": "in vivo", "settings": "applied onto water surface, 25th day from treatment", "excerpt": "as §2"}}}
{"smiles": "COC(=O)CSc1cc(/N=c2\\sc(=O)n3n2CCCC3)c(F)cc1Cl", "note": "[fluthiacet-methyl]", "values": [{"measurement": "extent of phytotoxicity index, ZEAMX", "setting": "[1]; 5 g a.i./ha", "result": "0 (less than 5% growth inhibition)"}, {"measurement": "weed control effect index, CHEAL", "setting": "[2]; 5 g a.i./ha", "result": "8 (not less than 75% but less than 85% growth inhibition)"}, {"measurement": "weed control effect index, IPOLA", "setting": "[3]; 5 g a.i./ha", "result": "3 (not less than 25% but less than 35% growth inhibition)"}, {"measurement": "weed control effect index, ABUTH", "setting": "[4]; 5 g a.i./ha", "result": "9 (not less than 85% but less than 95% growth inhibition)"}, {"measurement": "weed control effect index, CYPES", "setting": "[5]; 5 g a.i./ha", "result": "2 (not less than 15% but less than 25% growth inhibition)"}]}
{"smiles": "CCCc1ccc2nc(Cl)c(S(=O)(=O)NC(=O)Nc3nc(OC)cc(OC)n3)n2n1", "note": "[TH-547, 1-(2-chloro-6-propylimidazo[1,2-b]pyridazin-3-ylsulfonyl)-3-(4,6-dimethoxypyrimidin-2-yl)urea]", "values": [{"measurement": "extent of phytotoxicity index, OR", "setting": "[6]; 7 g a.i./10a", "result": "0 (less than 5% growth inhibition)"}, {"measurement": "weed control effect index, ECHOR", "setting": "[7]; 7 g a.i./10a", "result": "7 (not less than 65% but less than 75% growth inhibition)"}, {"measurement": "weed control effect index, MOOVA", "setting": "[8]; 7 g a.i./10a", "result": "7 (not less than 65% but less than 75% growth inhibition)"}, {"measurement": "weed control effect index, SCIJO", "setting": "[9]; 7 g a.i./10a", "result": "6 (not less than 55% but less than 65% growth inhibition)"}, {"measurement": "weed control effect index, CYPSE", "setting": "[10]; 7 g a.i./10a", "result": "6 (not less than 55% but less than 65% growth inhibition)"}, {"measurement": "weed control effect index, ANEKE", "setting": "[11]; 7 g a.i./10a", "result": "4 (not less than 35% but less than 45% growth inhibition)"}]}
{"smiles": "CCC1(CC2(c3cccc(Cl)c3)CO2)C(=O)c2ccccc2C1=O", "note": "(stereo not shown) [indanofan]", "values": [{"measurement": "weed control effect index, ECHOR", "setting": "[7]; 15 g a.i./10a", "result": "6 (not less than 55% but less than 65% growth inhibition)"}, {"measurement": "weed control effect index, MOOVA", "setting": "[8]; 15 g a.i./10a", "result": "5 (not less than 45% but less than 55% growth inhibition)"}, {"measurement": "weed control effect index, SCIJO", "setting": "[9]; 15 g a.i./10a", "result": "3 (not less than 25% but less than 35% growth inhibition)"}, {"measurement": "weed control effect index, CYPSE", "setting": "[10]; 15 g a.i./10a", "result": "1 (not less than 5% but less than 15% growth inhibition)"}, {"measurement": "weed control effect index, ANEKE", "setting": "[11]; 15 g a.i./10a", "result": "5 (not less than 45% but less than 55% growth inhibition)"}]}
{"smiles": "COCc1cccc(C(O)c2nc(OC)cc(OC)n2)c1NS(=O)(=O)C(F)F", "note": "(stereo not shown) [Compound A-1, 2-[(4,6-dimethoxypyrimidin-2-yl)hydroxymethyl]-6-methoxymethyl-N-difluoromethanesulfonylanilide]", "values": [{"measurement": "extent of phytotoxicity index, OR", "setting": "[6]; 3 g a.i./10a", "result": "0 (less than 5% growth inhibition)"}, {"measurement": "weed control effect index, ECHOR", "setting": "[7]; 3 g a.i./10a", "result": "7 (not less than 65% but less than 75% growth inhibition)"}, {"measurement": "weed control effect index, MOOVA", "setting": "[8]; 3 g a.i./10a", "result": "7 (not less than 65% but less than 75% growth inhibition)"}, {"measurement": "weed control effect index, SCIJO", "setting": "[9]; 3 g a.i./10a", "result": "8 (not less than 75% but less than 85% growth inhibition)"}, {"measurement": "weed control effect index, CYPSE", "setting": "[10]; 3 g a.i./10a", "result": "8 (not less than 75% but less than 85% growth inhibition)"}, {"measurement": "weed control effect index, ANEKE", "setting": "[11]; 3 g a.i./10a", "result": "2 (not less than 15% but less than 25% growth inhibition)"}, {"measurement": "extent of phytotoxicity index, ZEAMX", "setting": "[1]; 10 g a.i./ha", "result": "0 (less than 5% growth inhibition)"}, {"measurement": "weed control effect index, CHEAL", "setting": "[2]; 10 g a.i./ha", "result": "1 (not less than 5% but less than 15% growth inhibition)"}, {"measurement": "weed control effect index, IPOLA", "setting": "[3]; 10 g a.i./ha", "result": "6 (not less than 55% but less than 65% growth inhibition)"}, {"measurement": "weed control effect index, ABUTH", "setting": "[4]; 10 g a.i./ha", "result": "5 (not less than 45% but less than 55% growth inhibition)"}, {"measurement": "weed control effect index, CYPES", "setting": "[5]; 10 g a.i./ha", "result": "7 (not less than 65% but less than 75% growth inhibition)"}]}
{"smiles": "COc1cc(OC)nc(NC(=O)NS(=O)(=O)c2ncccc2C(=O)N(C)C)n1", "note": "[nicosulfuron]", "values": [{"measurement": "extent of phytotoxicity index, ZEAMX", "setting": "[1]; 35 g a.i./ha", "result": "0 (less than 5% growth inhibition)"}, {"measurement": "weed control effect index, CHEAL", "setting": "[2]; 35 g a.i./ha", "result": "8 (not less than 75% but less than 85% growth inhibition)"}, {"measurement": "weed control effect index, IPOLA", "setting": "[3]; 35 g a.i./ha", "result": "3 (not less than 25% but less than 35% growth inhibition)"}, {"measurement": "weed control effect index, ABUTH", "setting": "[4]; 35 g a.i./ha", "result": "2 (not less than 15% but less than 25% growth inhibition)"}, {"measurement": "weed control effect index, CYPES", "setting": "[5]; 35 g a.i./ha", "result": "4 (not less than 35% but less than 45% growth inhibition)"}]}
{"smiles": "CCNc1nc(Cl)nc(NC(C)C)n1", "note": "[atrazine]", "values": [{"measurement": "extent of phytotoxicity index, ZEAMX", "setting": "[1]; 1000 g a.i./ha", "result": "0 (less than 5% growth inhibition)"}, {"measurement": "weed control effect index, CHEAL", "setting": "[2]; 1000 g a.i./ha", "result": "8 (not less than 75% but less than 85% growth inhibition)"}, {"measurement": "weed control effect index, IPOLA", "setting": "[3]; 1000 g a.i./ha", "result": "3 (not less than 25% but less than 35% growth inhibition)"}, {"measurement": "weed control effect index, ABUTH", "setting": "[4]; 1000 g a.i./ha", "result": "3 (not less than 25% but less than 35% growth inhibition)"}, {"measurement": "weed control effect index, CYPES", "setting": "[5]; 1000 g a.i./ha", "result": "3 (not less than 25% but less than 35% growth inhibition)"}]}
